# Data as given in ChEMBL document CHEMBL5154672, “Design and synthesis of HDAC inhibitors to enhance the therapeutic effect of diffuse large B-cell lymphoma by improving metabolic stability and pharmacokinetic characteristics” (Eur J Med Chem, 2022).
# Assays:
# TMD8 [1] = assay: Induction of apoptosis in human TMD8 cells assessed as late apoptotic cells at 0.5 uM incubated for 24 hrs by Annexin V-FITC/PI staining based flow cytometric analysis (reference value: 1.54%); format: functional
# [2] = AUC (0 to infinity) in CB.17 SCID mouse xenografted with human TMD8 cells at 25 mg/kg, po measured upto 24 hrs by LC-MS/MS analysis; format: ADME, organism-based; parameters: time < 24 hrs, dose 25 mg/kg, route po; conditions: in vivo
# [3] = Metabolic stability in rat liver microsomes assessed as half life measured for 75 to 130 mins by LC-MS/MS analysis; format: ADME, Microsome; conditions: time 75-130 min
# COLO-678 = assay: Antiproliferative activity against human COLO-678 cells incubated for 72 hrs by luminescence assay; format: functional, cell-based; conditions: COLO-678, 72 h
# [4] = MRT in ICR mouse at 25 mg/kg, po measured upto 24 hrs by LC-MS/MS analysis; format: ADME, organism-based; conditions: in vivo
# TMD8 [5] = assay: Induction of apoptosis in human TMD8 cells assessed as early apoptotic cells at 4 uM incubated for 24 hrs by Annexin V-FITC/PI staining based flow cytometric analysis (reference value: 0.24%); format: functional
# SK-OV-3 = assay: Antiproliferative activity against human SK-OV-3 cells incubated for 72 hrs by luminescence assay; format: functional, cell-based; conditions: SK-OV-3, 72 h
# MOLT-4 = assay: Antiproliferative activity against human MOLT-4 cells incubated for 72 hrs by luminescence assay; format: functional, cell-based; conditions: MOLT-4, 72 h
# CWR22R = assay: Antiproliferative activity against human 22Rv1 cells incubated for 72 hrs by luminescence assay; format: functional, cell-based; conditions: 22Rv1, 72 h
# [6] = Oral bioavailability in ICR mouse at 25 mg/kg measured upto 24 hrs by LC-MS/MS analysis; format: ADME, organism-based; conditions: in vivo
# [7] = Metabolic stability in mouse liver microsomes assessed as half life measured for 75 to 130 mins by LC-MS/MS analysis; format: ADME, Microsome; conditions: time 75-130 min
# 786-0 = assay: Antiproliferative activity against human 786-O cells incubated for 72 hrs by luminescence assay; format: functional, cell-based; conditions: 786-0, 72 h
# A549 = assay: Antiproliferative activity against human A549 cells incubated for 72 hrs by luminescence assay; format: functional, cell-based; conditions: A549, 72 h
# TMD8 [8] = assay: Induction of apoptosis in human TMD8 cells assessed as early apoptotic cells at 2 uM incubated for 24 hrs by Annexin V-FITC/PI staining based flow cytometric analysis (reference value: 0.24%); format: functional
# [9] = Cmax in CB.17 SCID mouse xenografted with human TMD8 cells at 50 mg/kg, po measured upto 24 hrs by LC-MS/MS analysis; format: ADME, organism-based; parameters: dose 50 mg/kg, time < 24 hrs, route po; conditions: in vivo
# TMD8 [10] = assay: Induction of apoptosis in human TMD8 cells assessed as late apoptotic cells at 2 uM incubated for 24 hrs by Annexin V-FITC/PI staining based flow cytometric analysis (reference value: 1.54%); format: functional
# [11] = Metabolic stability in human liver microsomes assessed as half life measured for 75 to 130 mins by LC-MS/MS analysis; format: ADME, Microsome; conditions: liver microsomes, time 75-130 min
# TMD8 [12] = assay: Induction of apoptosis in human TMD8 cells assessed as viable cells at 0.5 uM incubated for 24 hrs by Annexin V-FITC/PI staining based flow cytometric analysis (reference value: 96.4%); format: functional; conditions: read-out: Activity
# [13] = Cmax in ICR mouse at 25 mg/kg, po measured upto 24 hrs by LC-MS/MS analysis; format: ADME, organism-based; parameters: time < 24 hrs, dose 25 mg/kg, route po; conditions: in vivo
# Histone deacetylase 3 = Histone deacetylase 3 (Homo sapiens, UniProt O15379); assay: Inhibition of HDAC3 (unknown origin) using RHKK(Ac)AMC fluorogenic peptide as substrate preincubated for 10 mins followed by substrate addition for 1 hr in presence of ATP by fluoroscence based assay
# TMD8 [14] = assay: Induction of apoptosis in human TMD8 cells assessed as viable cells at 2 uM incubated for 24 hrs by Annexin V-FITC/PI staining based flow cytometric analysis (reference value: 96.4%); format: functional; conditions: read-out: Activity
# Histone deacetylase 2 = Histone deacetylase 2 (Homo sapiens, UniProt Q92769); assay: Inhibition of HDAC2 (unknown origin) using RHKK(Ac)AMC fluorogenic peptide as substrate preincubated for 10 mins followed by substrate addition for 1 hr in presence of ATP by fluoroscence based assay
# HCT-116 = assay: Antiproliferative activity against human HCT-116 cells assessed as remaining cell activity at 2 uM incubated for 72 hrs by luminescence assay relative to control; format: functional
# [15] = AUC (0 to t) in CB.17 SCID mouse xenografted with human TMD8 cells at 25 mg/kg, po measured upto 24 hrs by LC-MS/MS analysis; format: ADME, organism-based; parameters: dose 25 mg/kg, time < 24 hrs, route po; conditions: in vivo
# [16] = Half life in ICR mouse at 25 mg/kg, po measured upto 24 hrs by LC-MS/MS analysis; format: ADME, organism-based; conditions: in vivo
# [17] = Metabolic stability in dog liver microsomes assessed as intrinsic clearance measured for 75 to 130 mins by LC-MS/MS analysis; format: ADME, Canis lupus familiaris, Microsome; conditions: time 75-130 min, read-out: CLH
# SU-DHL-2 = assay: Antiproliferative activity against human SUDHL2 cells incubated for 72 hrs by luminescence assay; format: functional, cell-based; conditions: SU-DHL-2, 72 h
# TMD8 [18] = assay: Induction of apoptosis in human TMD8 cells assessed as necrotic cells at 4 uM incubated for 24 hrs by Annexin V-FITC/PI staining based flow cytometric analysis (reference value: 1.85%); format: functional
# [19] = MRT (0 to t) in CB.17 SCID mouse xenografted with human TMD8 cells at 50 mg/kg, po measured upto 24 hrs by LC-MS/MS analysis; format: ADME, organism-based; conditions: in vivo
# [20] = Metabolic stability in dog liver microsomes assessed as half life measured for 75 to 130 mins by LC-MS/MS analysis; format: ADME, Canis lupus familiaris, Microsome; conditions: time 75-130 min
# Rec1 = assay: Antiproliferative activity against human REC1 cells incubated for 72 hrs by luminescence assay; format: functional, cell-based; conditions: Rec1, 72 h
# NCI-H460 = assay: Antiproliferative activity against human NCI-H460 cells incubated for 72 hrs by luminescence assay; format: functional, cell-based; conditions: NCI-H460, 72 h
# [21] = Metabolic stability in monkey liver microsomes assessed as intrinsic clearance measured for 75 to 130 mins by LC-MS/MS analysis; format: ADME, Macaca fascicularis, Microsome; conditions: cynomolgus monkey, time 75-130 min, read-out: CLH
# DOHH-2 = assay: Antiproliferative activity against human DOHH-2 cells incubated for 72 hrs by luminescence assay; format: functional, cell-based; conditions: DOHH-2, 72 h
# MDA-MB-231 = assay: Antiproliferative activity against human MDA-MB-231 cells assessed as remaining cell activity at 2 uM incubated for 72 hrs by luminescence assay relative to control; format: functional
# Sequence of Histone deacetylase 3 (O15379 whole entry): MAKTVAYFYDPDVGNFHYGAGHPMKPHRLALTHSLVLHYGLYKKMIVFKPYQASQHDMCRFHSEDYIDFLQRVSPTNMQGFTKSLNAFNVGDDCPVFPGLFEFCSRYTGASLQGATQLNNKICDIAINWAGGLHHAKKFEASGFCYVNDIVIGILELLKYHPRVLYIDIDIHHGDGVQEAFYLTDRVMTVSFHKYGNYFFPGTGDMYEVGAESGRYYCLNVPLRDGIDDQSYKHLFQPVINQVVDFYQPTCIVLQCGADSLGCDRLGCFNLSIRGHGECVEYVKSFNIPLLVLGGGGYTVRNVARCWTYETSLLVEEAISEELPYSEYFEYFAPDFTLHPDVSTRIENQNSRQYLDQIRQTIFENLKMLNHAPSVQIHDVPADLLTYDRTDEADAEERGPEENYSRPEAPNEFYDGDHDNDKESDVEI
# Sequence of Histone deacetylase 2 (Q92769 whole entry): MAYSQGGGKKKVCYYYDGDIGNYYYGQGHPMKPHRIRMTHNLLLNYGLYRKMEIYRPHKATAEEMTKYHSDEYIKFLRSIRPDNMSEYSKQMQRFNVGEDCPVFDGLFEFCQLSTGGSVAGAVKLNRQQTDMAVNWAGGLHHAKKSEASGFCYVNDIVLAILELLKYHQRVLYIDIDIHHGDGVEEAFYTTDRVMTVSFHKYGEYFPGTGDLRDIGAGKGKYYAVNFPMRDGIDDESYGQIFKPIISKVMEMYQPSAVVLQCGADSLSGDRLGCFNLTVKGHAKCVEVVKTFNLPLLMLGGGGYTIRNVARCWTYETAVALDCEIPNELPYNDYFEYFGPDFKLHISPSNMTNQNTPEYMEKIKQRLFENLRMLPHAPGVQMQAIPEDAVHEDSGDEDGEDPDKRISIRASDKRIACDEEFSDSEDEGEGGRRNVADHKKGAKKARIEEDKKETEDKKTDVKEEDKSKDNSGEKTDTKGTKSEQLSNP
smiles,measurement,setting,value
Nc1ccccc1NC(=O)c1ccc(CN2CCC/C(=C\c3ccccn3)C2=O)cc1,Activity,TMD8 [1],1.59%
same,AUC(0-inf),[2],1230 ng·h/mL
same,half-life,[3],1.75 h
same,IC50,COLO-678,8020 nM
same,MRT,[4],2.6 h
same,Activity,TMD8 [5],24.8%
same,IC50,SK-OV-3,3170 nM
same,IC50,MOLT-4,380 nM
same,IC50,CWR22R,1140 nM
same,bioavailability,[6],39.9%
same,half-life,[7],2.88 h
same,IC50,786-0,600 nM
same,IC50,A549,2850 nM
same,Activity,TMD8 [8],10.3%
same,Cmax,[9],14700 ng/mL
same,Activity,TMD8 [10],7.94%
same,half-life,[11],13.3 h
same,viability at 0.5 µM,TMD8 [12],95.8%
same,Cmax,[13],3100 ng/mL
same,IC50,Histone deacetylase 3,443 nM
same,viability at 2 µM,TMD8 [14],75.3%
same,IC50,Histone deacetylase 2,168 nM
same,Activity,HCT-116,44.01%
same,AUC(0-t) at 24 h,[15],1220 ng·h/mL
same,half-life,[16],4.4 h
same,microsomal CLint,[17],1.32 µL/min/mg
same,IC50,SU-DHL-2,510 nM
same,Activity,TMD8 [18],8.19%
same,MRT last at 24 h,[19],0.812 h
same,half-life,[20],17.9 h
same,IC50,Rec1,330 nM
same,IC50,NCI-H460,1580 nM
same,microsomal CLint,[21],14.1 µL/min/mg
same,IC50,DOHH-2,390 nM
same,Activity,MDA-MB-231,64.94%
